Results on one compound are retold here after patent publication US20140088144A1, “INHIBITING MICROBIAL INFECTIONS” (THE UNIVERSITY OF KANSAS, priority 2012, published 2014).

Molecules are shown by their SMILES.

In one data set the test system is L-929 cells. The experiment in a line: AlamarBlue metabolic activity / viability assay. Format: cell-based, mouse. As to the method:
AlamarBlue® assays were performed as a control to test whether SE-1 had any impact on the metabolic activity of the host cells, as follows: L-929 cells were seeded into 96-well plates and grown overnight to ˜90% confluency. SE-1 was serially diluted in RPMI supplemented with 10 μg/ml gentamycin and 5% FBS, added to the wells, and incubated at 37° C. for 3 h. Cells were washed with 200 μl Hank's buffered salt solution (Mediatech) and incubated with 200 μl RPMI (without phenol red) containing 10% AlamarBlue® (also known as Resazurin, Invitrogen, Grand Island, N.Y.). Following 8 h incubation at 37° C., the absorbance was measured at 570 nm and 600 nm using a PowerWave XS plate reader, and the metabolic activity of the cells (as a percentage of untreated controls) was calculated using the following formula provided by the manufacturer: (117,216×A570−80,586×A600)/(117,216×A′570−80,586×A′600)×100, where A is the absorbance of test wells, and A′ is the absorbance of positive control wells (mock-infection).
(Resazurin is reduced to fluorescent resorufin, in cell work by metabolically active cells.)

For another data set, the target named is T1, MBP-Rns (Escherichia coli, UniProt P16114).
T1 construct: made in house
The experiment in a line: EMSA in vitro DNA binding by MBP-Rns. It counts as biochemical, Enterotoxigenic E. coli. The text has this: FIGS. 9A-9B show inhibition of MBP-Rns and MBP-VirF by Compound 1. Quantification of EMSA of MBP-Rns (FIG. 9A) or example EMSA of MBP-VirF (FIG. 9B) DNA binding with the indicated inhibitor concentrations [micromolar]. F is Free DNA.
The compounds of the invention can be used for inhibition of virulence in vivo and in vitro activation by Rns and VirF.
Background: A gel shift assay detects complexes by their altered migration in electrophoresis.

In data set [1] the test system is human epithelial cells (HeLa). Briefly: Alamar Blue [resazurin] metabolic activity of tissue culture cells used in invasion assays. Format: cell-based. The text has this: We expect that Compound 1 can impact host cell interaction but have little or no effect on growth rate of Shigella, based on our results with non-pathogenic E. coli strains.
The target in another data set is T2, RhaS-GB1^201b (Escherichia coli, UniProt P09377, L201R).
T2 construct: solubility-enhancement tag to the C-terminus of full-length RhaS L201R; GB1basic (basic variant of GB1 solubility-enhancement tag) (C); made in house; host or cells: E. coli Acella, pET21-derived plasmid
The experiment in a line: EMSA in vitro DNA binding by RhaS-GB1^201b. Format: biochemical, E. coli. The source says:
All proteins for this study were expressed in E. coli. Untagged CRP was purified by Ni^2+-affinity chromatography as described. Lad protein was purified by ammonium sulfate precipitation and phosphocellulose column chromatography as described. RhaS-GB1^201b and GB1^b-RhaR were purified by Ni^2+-affinity chromatography. Briefly, plasmids derived from pET21 and expressing RhaS-GB1^201b and GB1^b-RhaR were transformed into competent cells of strains Acella™ (MoBiTec, Gottingen, Germany) or ArcticExpress(DE3) (Agilent Technologies, Santa Clara Calif.), respectively. The cells were grown in 1 liter TY plus ampicillin and rhamnose. Gentamycin was also added for GB1^b-RhaR. The cells were grown to OD600 of 0.5, transferred to a 15° C. shaker, 0.1 mM IPTG was added, and then incubated overnight. Cells were harvested by centrifugation and then resuspended in 30 mL of cold binding buffer (20 mM Tris, 500 mM NaCl, 5 mM imidazole, pH 7.9) plus L-rhamnose. […]
IRD700- and DY682-labeled oligos were from Eurofins MWG Operon. […] EMSA gels were imaged using an Odyssey infrared imager (LI-COR, Lincoln, Nebr.), and quantified using the Odyssey software, version 3.0.30. […] Inhibition values were calculated and graphs were drawn as for in vivo dose-response experiments.

T2 sequence (P09377 whole entry L201R): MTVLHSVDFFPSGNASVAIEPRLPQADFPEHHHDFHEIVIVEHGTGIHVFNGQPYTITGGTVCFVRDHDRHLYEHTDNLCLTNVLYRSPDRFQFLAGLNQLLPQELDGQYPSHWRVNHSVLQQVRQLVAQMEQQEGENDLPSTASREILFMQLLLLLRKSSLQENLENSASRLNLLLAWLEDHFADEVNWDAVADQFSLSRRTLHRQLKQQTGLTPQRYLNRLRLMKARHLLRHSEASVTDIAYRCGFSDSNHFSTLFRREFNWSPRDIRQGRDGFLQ
T1 sequence (P16114 whole entry): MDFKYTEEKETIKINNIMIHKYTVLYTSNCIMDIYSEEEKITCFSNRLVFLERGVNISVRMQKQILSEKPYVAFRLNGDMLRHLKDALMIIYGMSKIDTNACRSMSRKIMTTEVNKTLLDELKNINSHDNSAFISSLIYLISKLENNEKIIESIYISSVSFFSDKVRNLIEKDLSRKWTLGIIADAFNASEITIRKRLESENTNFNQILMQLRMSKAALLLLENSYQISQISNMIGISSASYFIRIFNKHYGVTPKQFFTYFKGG

The term IC50 denotes the concentration that gives 50% inhibition. Higher therefore signals lower potency. For the compound `CCCCN1C=C(c2ccc3ccccc3n2)C(C[N+](=O)[O-])c2ccccc21` (stereo not drawn) [Compound 1, 1-butyl-4-(nitromethyl)-3-quinolin-2-yl-4H-quinoline], in the data set with L-929 cells (40 μM SE-1), the host cell viability result was “no effect”. Also, the “viability of L-929 cells” value in the data set on L-929 cells (0.2 and 0.4 μM SE-1) is on record as “did not detectably decrease the viability”. The “inhibition of in vitro DNA binding by purified Rns” value on MBP-Rns is on record as “similarly inhibits”. The “metabolic activity of the tissue culture cells” value in data set [1] was “did not have any effect”. This compound came in with an IC50 on RhaS-GB1^201b of approximately 70 µM. Moreover, at RhaS-GB1^201b (EMSA, dose-dependent), the “inhibition of DNA binding by RhaS-GB1^201b” value was “fully inhibit DNA binding”.
